Here are results for five molecules from patent publication US20180291335A1, “MODIFIED POLYNUCLEOTIDES FOR ALTERING CELL PHENOTYPE” (ModernaTX, Inc., priority 2012, published 2018).

Series [1] has as its system HeLa cells. The series is described as follows: Luciferase in HeLa cells using a combination of modifications. In kind it is cell-based, human. To be noted: 83 ng luciferase modified RNA, 18 to 22 hours, listed as 5-methylcytidine/pseudouridine. The method, then:
To evaluate using of 2′fluoro-modified mRNA in combination with other modification a series of mRNA were transcribed using either wild-type T7 polymerase (non-fluoro-containing compounds) or using mutant T7 polymerases (fluyoro-containing compounds) as described in Example 86. All modified mRNA were tested by in vitro transfection in HeLa cells.
(§1) The day before transfection, 20,000 HeLa cells (ATCC no. CCL-2; Manassas, Va.) were harvested by treatment with Trypsin-EDTA solution (LifeTechnologies, Grand Island, N.Y.) and seeded in a total volume of 100 ul EMEM medium (supplemented with 10% FCS and 1× Glutamax) per well in a 96-well cell culture plate (Corning, Manassas, Va.). The cells were grown at […] in 5% CO2 atmosphere overnight. […] Lipofectamine 2000 (LifeTechnologies, Grand Island, N.Y.) was used as transfection reagent and 0.2 ul were diluted in 10 ul final volume of OPTI-MEM. After 5 minutes of incubation at room temperature, both solutions were combined and incubated an additional 15 minute at room temperature. Then the 20 ul combined solution was added to the 100 ul cell culture medium containing the HeLa cells and incubated at room temperature.
(§2) After 18 to 22 hours of incubation cells expressing luciferase were lysed with 100 ul of Passive Lysis Buffer (Promega, Madison, Wis.) according to manufacturer instructions. Aliquots of the lysates were transferred to white opaque polystyrene 96-well plates (Corning, Manassas, Va.) and combined with 100 ul complete luciferase assay solution (Promega, Madison, Wis.). The lysate volumes were adjusted or diluted until no more than 2 mio relative light units (RLU) per well were detected for the strongest signal producing samples and the RLUs for each chemistry tested are shown in Table 26. The plate reader was a BioTek Synergy H1 (BioTek, Winooski, Vt.). The background signal of the plates without reagent was about 200 relative light units per well.

Series [2] deals with Rabbit Reticulocyte Lysate. Nature of the series: In vitro screening in rabbit reticulocyte lysates, luciferase mRNA translation. In kind it is biochemical. To be noted: 250 ng luciferase mRNA, 60 minutes, 30° C. The protocol: The diluted luciferase was added to 40 ul of freshly prepared Rabbit Reticulocyte Lysate and the in vitro translation reaction was done in a standard 1.5 mL polypropylene reaction tube (Thermo Fisher Scientific, Waltham, Mass.) at 30° C. in a dry heating block. The translation assay was done with the Rabbit Reticulocyte Lysate (nuclease-treated) kit (Promega, Madison, Wis.) according to the manufacturer's instructions. The reaction buffer was supplemented with a one-to-one blend of provided amino acid stock solutions devoid of either Leucine or Methionine resulting in a reaction mix containing sufficient amounts of both amino acids to allow effective in vitro translation.
After 60 minutes of incubation, the reaction was stopped by placing the reaction tubes on ice. Aliquots of the in vitro translation reaction containing luciferase modified RNA were transferred to white opaque polystyrene 96-well plates (Corning, Manassas, Va.) and combined with 100 ul complete luciferase assay solution (Promega, Madison, Wis.). The volumes of the in vitro translation reactions were adjusted or diluted until no more than 2 mio relative light units (RLUs) per well were detected for the strongest signal producing samples and the RLUs for each chemistry tested are shown in Table 20. The plate reader was a BioTek Synergy H1 (BioTek, Winooski, Vt.). The background signal of the plates without reagent was about 200 relative light units per well.

For series [3], the system named is HeLa cells. Nature of the series: In vitro screening in HeLa cells, luciferase modified RNA. To be noted: HeLa cells, 83 ng luciferase modified RNA, 18 to 22 hours. It is filed as cell-based, human. The protocol: as §1
as §2, with “19.” for “26.”

In series [4] the test system is interferon-alpha (IFN-alpha). Nature of the series: 2′Fluoro chemistries in PBMC: IFN-alpha production by ELISA. It is filed as cell-based, human. To be noted: G-CSF modified mRNA. (In an ELISA, binding on a coated surface is turned into a signal by an enzyme label.)
The subject of series [5] is tumor necrosis factor-alpha (TNF-alpha). Nature of the series: 2′Fluoro chemistries in PBMC: TNF-alpha production by ELISA. In kind it is cell-based, human. The following applies: G-CSF modified mRNA.
Series [6] relates to HeLa cells. The series is described as follows: G-CSF modified mRNA transfected in HeLa cells, G-CSF ELISA. In kind it is cell-based, human. The following applies: HeLa cells, combination chemistries, ELISA. Put shortly:
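Human G-CSF mRNAs bearing various chemical modifications, made with a mutant T7 polymerase, were either transfected into HeLa cells or added to rabbit reticulocyte lysate at 250 ng mRNA. G-CSF protein was quantified by ELISA.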

For the molecule “5-methylcytosine/pseudouridine, test A1: Luciferase mRNA (SEQ ID NO: 409) modified with 5-methylcytosine and pseudouridine; repeated tests”, the RLU in series [1] (test A) is given as 13,833 RLU; in series [1] (test B) it was 115,401 RLU; in series [2], 349,398 RLU; in series [2] (test A2), 558,779 RLU; in series [2] (test A3) it was 413,535 RLU; in series [2] (test B1), 454,662 RLU. In addition, the RLU is 487,805 RLU in series [2] (test B2); 48,659 RLU in series [3]; 295,824 RLU in series [3] (test A2); 438,831 RLU in series [3] (test A3); 317,744 RLU in series [3] (test B1); 481,477 RLU in series [3] (test B2).

Regarding `CCOCc1nc2c(N)nc3ccccc3c2n1CC(C)(C)O` [Compound R-848, reference compound], in series [4], the “IFN-alpha: 3 Donor Average” value amounted to 45 pg/mL. The “TNF-alpha: 2 Donor Average” value in series [5] is on record as 8,235 pg/ml.

B1: 5-methylcytidine/5-bromouridine: G-CSF mRNA (SEQ ID NO: 408) fully modified with the named combination (nucleic acid)
chain: GGGAAAUAAGAGAGAAAAGAAGAGUAAGAAGAAAUAUAAGAGCCACCAUGGCCGGUCCCGCGACCCAAAGCCCCAUGAAACUUAUGGCCCUGCAGUUGCUGCUUUGGCACUCGGCCCUCUGGACAGUCCAAGAAGCGACUCCUCUCGGACCUGCCUCAUCGUUGCCGCAGUCAUUCCUUUUGAAGUGUCUGGAGCAGGUGCGAAAGAUUCAGGGCGAUGGAGCCGCACUCCAAGAGAAGCUCUGCGCGACAUACAAACUUUGCCAUCCCGAGGAGCUCGUACUGCUCGGGCACAGCUUGGGGAUUCCCUGGGCUCCUCUCUCGUCCUGUCCGUCGCAGGCUUUGCAGUUGGCAGGGUGCCUUUCCCAGCUCCACUCCGGUUUGUUCUUGUAUCAGGGACUGCUGCAAGCCCUUGAGGGAAUCUCGCCAGAAUUGGGCCCGACGCUGGACACGUUGCAGCUCGACGUGGCGGAUUUCGCAACAACCAUCUGGCAGCAGAUGGAGGAACUGGGGAUGGCACCCGCGCUGCAGCCCACGCAGGGGGCAAUGCCGGCCUUUGCGUCCGCGUUUCAGCGCAGGGCGGGUGGAGUCCUCGUAGCGAGCCACCUUCAAUCAUUUUUGGAAGUCUCGUACCGGGUGCUGAGACAUCUUGCGCAGCCGUGAAGCGCUGCCUUCUGCGGGGCUUGCCUUCUGGCCAUGCCCUUCUUCUCUCCCUUGCACCUGUACCUCUUGGUCUUUGAAUAAAGCCUGAGUAGGAAG
modifications: 5-methylcytidine/5-bromouridine modified; Description of Artificial Sequence: Synthetic Transcript Sequence
Turning to B1, in series [6], the “G-CSF protein (pg/ml) HeLa cells” value is on record as 48,864 pg/ml. In addition, the “IFN-alpha: 3 Donor Average” value in series [4] came to 0 pg/mL. Besides, the “TNF-alpha: 2 Donor Average” value in series [5] is 270 pg/mL.

B2: N4-acetylcytidine/2-thiouridine: G-CSF mRNA (SEQ ID NO: 408) fully modified with the named combination (nucleic acid)
chain: B1 chain
modifications: N4-acetylcytidine/2-thiouridine modified; Description of Artificial Sequence: Synthetic Transcript Sequence
Regarding B2, the “G-CSF protein (pg/ml) HeLa cells” value in series [6] is listed as 46,136 pg/ml. For the same molecule, the “IFN-alpha: 3 Donor Average” value in series [4] came out at 0 pg/mL. The “TNF-alpha: 2 Donor Average” value in series [5] amounted to 285 pg/mL.

B3: N4-acetylcytidine/5-bromouridine: G-CSF mRNA (SEQ ID NO: 408) fully modified with the named combination (nucleic acid)
chain: B1 chain
modifications: N4-acetylcytidine/5-bromouridine modified; Description of Artificial Sequence: Synthetic Transcript Sequence
As to B3, the “G-CSF protein (pg/ml) HeLa cells” value in series [6] is given as 211,591 pg/ml. The “IFN-alpha: 3 Donor Average” value in series [4] came to 44 pg/mL. The “TNF-alpha: 2 Donor Average” value in series [5] is 403 pg/mL.
